Assay results reported in ChEMBL document CHEMBL1201862, “PubChem BioAssay data set” (2004).
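Growth conditions: 96-well plates. Treatment: test compound, 48 hours, 5 concentrations. Analysis: linear interpolation between bracketing concentrations; unreached endpoints set to highest concentration. Here, GI50 denotes the concentration required for 50% inhibition of growth.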 The source made the active and inactive calls. Rule as the data show it: active = GI50 up to about 1.1 µM and inactive = higher.

Legend:
Test in all cases: NCI tumour cell line growth inhibition, 48 h
DMS-273 = test system: DMS-273
NCI-H23 = test system: NCI-H23
UO-31 = test system: UO-31
IGROV-1 = test system: IGROV-1
UACC-62 = test system: UACC-62
A498 = test system: A498
RPMI-8226 = test system: RPMI-8226
NCI-H522 = test system: NCI-H522
SK-OV-3 = test system: SK-OV-3
TK-10 = test system: TK-10
XF498 = test system: XF498
SK-MEL-5 = test system: SK-MEL-5
SF-295 = test system: SF-295
UACC-257 = test system: UACC-257
CAKI-1 = test system: CAKI-1
RXF 631 = test system: RXF 631
LOX IMVI = test system: LOX IMVI
SW-620 = test system: SW-620
SNB-75 = test system: SNB-75
COLO 205 = test system: COLO 205
SK-MEL-2 = test system: SK-MEL-2
U-251 = test system: U-251
DLD-1 = test system: DLD-1
MOLT-4 = test system: MOLT-4
OVCAR-5 = test system: OVCAR-5
HCT-15 = test system: HCT-15
NCI-H460 = test system: NCI-H460
OVCAR-3 = test system: OVCAR-3
HCC 2998 = test system: HCC 2998
SF-268 = test system: SF-268
HT-29 = test system: HT-29
SN12C = test system: SN12C
DMS-114 = test system: DMS-114
SF-539 = test system: SF-539
CCRF-CEM = test system: CCRF-CEM
SK-MEL-28 = test system: SK-MEL-28
HL-60 = test system: HL-60
SNB-19 = test system: SNB-19
HCT-116 = test system: HCT-116
HOP-92 = test system: HOP-92
KM12 = test system: KM12
EKVX = test system: EKVX
M19-MEL = test system: M19-MEL
A549 = test system: A549
786-0 = test system: 786-0
Malme-3M = test system: Malme-3M
SNB-78 = test system: SNB-78
OVCAR-8 = test system: OVCAR-8
M14 = test system: M14
K562 = test system: K562
HOP-62 = test system: HOP-62
OVCAR-4 = test system: OVCAR-4
ACHN = test system: ACHN
RXF 393 = test system: RXF 393
LXFL 529 = test system: LXFL 529
KM-20L2 = test system: KM-20L2
NCI-H226 = test system: NCI-H226
HOP-18 = test system: HOP-18

CC(O)/C=C/C(CCC(C)CO)C(C)C (stereo not drawn)
GI50 (DMS-273): > 100 µM (inactive)
GI50 (NCI-H23): > 100 µM (inactive)
GI50 (UO-31): > 100 µM (inactive)
GI50 (IGROV-1): > 100 µM (inactive)
GI50 (UACC-62): > 100 µM (inactive)
GI50 (A498): > 100 µM (inactive)
GI50 (RPMI-8226): > 100 µM (inactive)
GI50 (NCI-H522): > 100 µM (inactive)
GI50 (SK-OV-3): > 100 µM (inactive)
GI50 (TK-10): > 100 µM (inactive)
GI50 (XF498): > 100 µM (inactive)
GI50 (SK-MEL-5): > 100 µM (inactive)
GI50 (SF-295): > 100 µM (inactive)
GI50 (UACC-257): > 100 µM (inactive)
GI50 (CAKI-1): > 100 µM (inactive)
GI50 (RXF 631): > 100 µM (inactive)
GI50 (LOX IMVI): > 100 µM (inactive)
GI50 (SW-620): > 100 µM (inactive)
GI50 (SNB-75): > 100 µM (inactive)
GI50 (COLO 205): > 100 µM (inactive)
GI50 (SK-MEL-2): > 100 µM (inactive)
GI50 (U-251): > 100 µM (inactive)
GI50 (DLD-1): > 100 µM (inactive)
GI50 (MOLT-4): > 100 µM (inactive)
GI50 (OVCAR-5): > 100 µM (inactive)
GI50 (HCT-15): > 100 µM
GI50 (NCI-H460): > 100 µM (inactive)
GI50 (OVCAR-3): > 100 µM (inactive)
GI50 (HCC 2998): > 100 µM (inactive)
GI50 (SF-268): > 100 µM (inactive)
GI50 (HT-29): > 100 µM (inactive)
GI50 (SN12C): > 100 µM (inactive)
GI50 (DMS-114): > 100 µM (inactive)
GI50 (SF-539): > 100 µM (inactive)
GI50 (CCRF-CEM): > 100 µM (inactive)
GI50 (SK-MEL-28): > 100 µM (inactive)
GI50 (HL-60): > 100 µM (inactive)
GI50 (SNB-19): > 100 µM (inactive)
GI50 (HCT-116): > 100 µM (inactive)
GI50 (HOP-92): > 100 µM (inactive)
GI50 (KM12): > 100 µM (inactive)
GI50 (EKVX): > 100 µM (inactive)
GI50 (M19-MEL): > 100 µM (inactive)
GI50 (A549): > 100 µM (inactive)
GI50 (786-0): > 100 µM (inactive)
GI50 (Malme-3M): > 100 µM (inactive)
GI50 (SNB-78): > 100 µM (inactive)
GI50 (OVCAR-8): > 100 µM (inactive)
GI50 (M14): > 100 µM (inactive)
GI50 (K562): > 100 µM (inactive)
GI50 (HOP-62): > 100 µM (inactive)
GI50 (OVCAR-4): > 100 µM (inactive)
GI50 (ACHN): > 100 µM (inactive)
GI50 (RXF 393): > 100 µM (inactive)
GI50 (LXFL 529): > 100 µM (inactive)

COc1ccc(OC)c(NCC#N)c1
GI50 (DMS-273): > 100 µM (inactive)
GI50 (NCI-H23): > 100 µM (inactive)
GI50 (UO-31): > 100 µM (inactive)
GI50 (IGROV-1): > 100 µM (inactive)
GI50 (UACC-62): > 100 µM (inactive)
GI50 (A498): > 100 µM (inactive)
GI50 (RPMI-8226): > 100 µM (inactive)
GI50 (NCI-H522): > 100 µM (inactive)
GI50 (SK-OV-3): > 100 µM (inactive)
GI50 (TK-10): > 100 µM (inactive)
GI50 (XF498): > 100 µM (inactive)
GI50 (KM-20L2): > 100 µM (inactive)
GI50 (SK-MEL-5): > 100 µM (inactive)
GI50 (SF-295): > 100 µM (inactive)
GI50 (UACC-257): > 100 µM (inactive)
GI50 (RXF 631): > 100 µM (inactive)
GI50 (LOX IMVI): > 100 µM (inactive)
GI50 (SW-620): > 100 µM (inactive)
GI50 (SNB-75): > 100 µM (inactive)
GI50 (COLO 205): > 100 µM (inactive)
GI50 (SK-MEL-2): > 100 µM (inactive)
GI50 (U-251): > 100 µM (inactive)
GI50 (MOLT-4): > 100 µM (inactive)
GI50 (HCT-15): > 100 µM
GI50 (NCI-H460): > 100 µM (inactive)
GI50 (OVCAR-3): > 100 µM (inactive)
GI50 (HCC 2998): > 100 µM (inactive)
GI50 (SF-268): > 100 µM (inactive)
GI50 (HT-29): > 100 µM (inactive)
GI50 (NCI-H226): > 100 µM (inactive)
GI50 (SN12C): > 100 µM (inactive)
GI50 (DMS-114): > 100 µM (inactive)
GI50 (SF-539): > 100 µM (inactive)
GI50 (CCRF-CEM): > 100 µM (inactive)
GI50 (SK-MEL-28): > 100 µM (inactive)
GI50 (HL-60): > 100 µM (inactive)
GI50 (SNB-19): > 100 µM (inactive)
GI50 (HCT-116): > 100 µM (inactive)
GI50 (HOP-92): > 100 µM (inactive)
GI50 (KM12): > 100 µM (inactive)
GI50 (EKVX): > 100 µM (inactive)
GI50 (M19-MEL): > 100 µM (inactive)
GI50 (A549): > 100 µM (inactive)
GI50 (786-0): > 100 µM (inactive)
GI50 (Malme-3M): > 100 µM (inactive)
GI50 (OVCAR-8): > 100 µM (inactive)
GI50 (HOP-18): > 100 µM (inactive)
GI50 (M14): > 100 µM (inactive)
GI50 (K562): > 100 µM (inactive)
GI50 (HOP-62): > 100 µM (inactive)
GI50 (OVCAR-4): > 100 µM (inactive)
GI50 (ACHN): > 100 µM (inactive)
GI50 (RXF 393): > 100 µM (inactive)
